In patent US10709724B2, “Methods of treating mitochondrial dysfunction” (Ecole Polytechnique Federale de Lausanne (EPFL), priority 2011, dated 2020):
Entries after “also recorded” stand apart in the source; their conditions may differ.

Columns and labels:
C57Bl/6J mice = assay: Hyperinsulinemic-euglycemic clamp in CD and CD-NR mice; assay type: in vivo; settings: 4 weeks of treatment
Description: Hyperinsulinemic-euglycemic clamps were performed as described (Lagouge et al., 2006).

C. elegans [1] = assay: Worm respiration assay (Seahorse XF24); assay type: in vivo; settings: day 3 adult worms
Description: (§1) Worm Respiration Assays Oxygen consumption was measured using the Seahorse XF24 equipment (Seahorse Bioscience Inc., North Billerica, Mass.) as described in Yamamoto et al. Typically, 200 animals per conditions were recovered from NGM plates with M9 medium, washed three times in 2 mLM9 to eliminate residual bacteria, and resuspended in 500 μL M9 medium. Worms were transferred in 24-well standard Seahorse plates (#100777-004) (50 worms per well) and oxygen consumption was measured 6 times. Respiration rates were normalized to the number of worms in each individual well. NAD measurement by HPLC For NAD+ quantification, approximately 1000 worms were collected in M9 buffer, washed five times to remove residual bacteria and flash-frozen in liquid nitrogen and stored at −80° C. until analysis. Extraction was started by adding 250 μl of 1.6M perchloric acid on frozen samples, followed by extensive homogenization in a Qiagen tissuelyser, and centrifugation at 20.000 g for 15 min. The supernatant was recovered and neutralized with a 3M potassium carbonate solution. After centrifugation, 100 μl of supernatant was filtered and used for NAD measurement using an HPLC system (Agilent) with a Supelco LC-18-T column (Sigma), as described in Yoshino et al. (Yoshino, K. F. Mills, M. J. Yoon, S. Imai, Nicotinamide Mononucleotide, a Key NAD(+) Intermediate, Treats the Pathophysiology of Diet- and Age-Induced Diabetes in Mice. Cell Metab 14, 528 (2011)).

C. elegans [2] = assay: NAD measurement by HPLC in worms; assay type: in vivo; settings: day 4 of adulthood
Description: as §1, with “After centrifugation, 100 μl of supernatant was filtered and used for NAD measurement using an HPLC system (Agilent) with a Supelco LC-18-T column (Sigma), as described in Yoshino et al. (Yoshino, K. F. Mills, M. J. Yoon, S. Imai, Nicotinamide Mononucleotide, a Key NAD(+) Intermediate, Treats the Pathophysiology of Diet- and Age-Induced Diabetes in Mice. Cell Metab 14, 528 (2011)).” left out

C2C12 myotubes = assay: Intracellular NAD+ content in C2C12 myotubes treated with PARP inhibitors; assay type: cell-based; design: intracellular NAD+ over time / H2O2-induced NAD+ depletion: dose or concentration left out as unconfirmed
Description: Cell Culture, Transfection, Adenoviral Infection and Mitochondrial Characterization. HEK293T, MEF and C2C12 cells were cultured in DMEM (4.5 g/l glucose, 10% FCS). PARP-1^+/+ and PARP-1^−/− MEFs were prepared as described in (Menissier-de Murcia et al., 1997). SIRT1 and MEFs were kindly provided by Fred Alt (Chea et al., 2005). SIRT3 MER were established according to standard techniques from conditional SERT3^−/− mice. (Picard, F., Gehin, M., Annicotte, J., Rocchi, S., Champy, M. F., O'Malley, B. W., Chambon, P., and Auwerx, J. (2002). SRC-1 and TIF2 control energy balance between white and brown adipose tissues. Cell 111, 931-941.) Deletion of the SIRT3 gene was induced via infection with adenovirus encoding for the Cre recombinase. HEK293T cells were transfected using JetPei reagent (Polyplus Transfections, Illkirch, France) according to the manufacturer's instructions. C2C12 cells were differentiated in DMEM (4.5 g/L glucose, 2% horse serum) after reaching confluency for 2 days, followed by 2 days of PJ34 treatment (10 μM). PARP-1 shRNA constructs were described in (Shah et al., 2005). Human PARP-1 and siRNAs were obtained from Dharmacon (Thermo Scientific). The adenovirus encoding for FLAG-HA-PGC-1α, control and SIRT1 shRNAs were a kind gift from Pere Puigserver and were used (MOI=100) in C2C12 myotubes as described (Canto et al., 2009). Mitochondrial charge determination was performed as described (Bai et al., 2001) and DNA strand breaks were quantified by TUNEL assays according to the manufacturer's instructions (Millipore).
NAD^+ NAM Determination. NAD^+ levels in cultured cells were determined using a commercial kit (Enzychrom™, BioAssays Systems, CA). For tissue samples NAD^+ and NAM levels were determined as described in (Sauve et al., 2005). In brief, to a weighed aliquot of frozen pulverized tissue we added as standards, ^18O-NAD^+ (typically 2.00 nmol) and ^18O-NAM (typically 2.00 nmol). 70 L of ice-cold 7% perchloric acid was then added and the sample was vortexed and sonicated three times, then centrifuged. Clear supernatant was removed and neutralized by additions of 3 M NaOH and 1 M phosphate buffer (pH=9), then centrifuged. Clear supernatant was injected onto HPLC C-18 column with 20 mM ammonium acetate eluent to separate NAD^+ and NAM from other cellular components, NAD^+ and NAM peaks (260 nm absorbance) were collected. Collections were lyophilized to dryness and subjected to MALDI-TOF analysis. For NAD^+ measurement, ratio of intensities for m/z=664 and 666 peaks, corresponding to ^16O- and ^18O-NAD^+ isotopomers, was multiplied by 2.00 nmol and then divided by tissue weight to determine NAD+ concentration in the sample. For NAM the ratio of intensities for m/z=123 and 125 peaks, corresponding to ^16O- and ^18O-NAM isotopomers, was multiplied by 2.00 nmol and then divided by tissue weight to determine NAM concentration in the sample. Corrections were applied for isotopic abundance. Other NAD metabolites were determined as previously described (Yang and Sauve, Synthesis of nictotinamide riboside and derivatives: effective agents for increasing nictinomide adenine dinucleotide concentrations in mammalian cells. J Med Chem 50, 6458-6461 (2006)).

| SMILES | glucose infusion rate to maintain euglycemia, vs vehicle (C57Bl/6J mice) | insulin-induced muscle glucose uptake (C57Bl/6J mice) | oxygen consumption (respiration) (C. elegans [1]) | NAD+ levels in C. elegans (C. elegans [2]) | intracellular NAD+ at 24 hrs, dose dependence (C2C12 myotubes; 24 hrs (FIG. 6F)) | intracellular NAD+ content (C2C12 myotubes; 24 hrs, 1 mM (FIG. 13B)) | intracellular NAD+ during H2O2 treatment (C2C12 myotubes; H2O2 500 μM, 6 hrs, PJ34 1 μM) | H2O2-induced NAD+ depletion (C2C12 myotubes; PJ34 24 hrs, H2O2 1 hr (FIG. 13B)) | intracellular NAD+ over time (C2C12 myotubes; PJ34 for the times indicated (FIG. 6D)) |
| --- | --- | --- | --- | --- | --- | --- | --- | --- | --- |
| NC(=O)c1ccc[n+]([C@@H]2O[C@H](CO)[C@@H](O)[C@H]2O)c1 [NR, nicotinamide riboside] | ~2 fold | very marked increase | increased respiration; also recorded: Oxygen consumption was increased | increased NAD+ levels; also recorded: increases | – | – | – | – | – |
| CN(C)CC(=O)Nc1ccc2[nH]c(=O)c3ccccc3c2c1 [PJ34] | – | – | – | – | dose dependent manner | leads to increased intracellular content | prevented the decrease in intracellular NAD^+ | global inhibition of PARP activity with PJ34 did | gradual increase in NAD^+, becoming significant 24 hrs after the initiation of the treatment |
